# Assay results taken from article PMC10791743, “Selective CK1α degraders exert antiproliferative activity against a broad range of human cancer cell lines” (Nature Communications, 2024).
# “And” between values parts separate entries of the source, which are not always exact repeats. Equal values may be shown once.
# Assay: Plasma stability assay, human
# Type: in vitro ADME
# Conditions: for Calculated Concentration: 0h standards set to Actual Concentration 100, IS warfarin, replicates
# Protocol: page 32: Aldrich, Saint Louis, MO) were diluted into 0.1 M potassium phosphate buffer (PBS, pH 7.4, KH2PO4, Cat. No: P284-500; K2HPO4, Cat. No: BP363-500, Fisher Scientific, Fair Lawn, NJ) and mixed well. 40 μL of this solution was transferred into the above compounds plates. For the time 0 plate, 3 fold (v:v) cold acetonitrile with warfarin (400 ng/mL) as the internal standard was added to […] and B in PBS, pH 7.4) and no incubation. For the other five time points’ plates, 10 μL NADPH regenerating agent mixer was added to each well to initiate the reaction, the plate was sealed and incubated at 37° C on an orbital shaker (100 rpm) for the required time, followed by quenching of the reaction by adding 3-fold volume of cold acetonitrile with internal standard to each well. The final concentration of each component applied in this reaction was liver microsome protein at 0.5 […] After quenching, all plates were securely sealed and thoroughly mixed at 600 rpm for 10 minutes. Subsequently, centrifugation was performed at 4000 rpm for 20 minutes. The resulting supernatants […] analysis using UPLC–MS/MS. The assessment of metabolic stability involved determining the half- life through a least-squares fit of multiple time points, employing first-order kinetics. Plasma stability assay5: The degradation of human or mouse plasma was assessed by monitoring the gradual reduction of the parent compound over specified time intervals (0, 3, 24, and 48 hours). Human and mouse plasma samples were sourced from GeneTex (Irvine, CA). Test compound stock solutions, prepared at 10 mM in DMSO, were dispensed into triplicate wells of a 96-well microplate using the Labcyte Echo 650 dispenser. For plates, excluding the time 0-hour plate, plasma was […] The plate was sealed, incubated at 37°C on an orbital shaker (100 rpm) for the required duration, and then quenched with cold acetonitrile, incorporating warfarin as the internal standard. In the case of the time 0-hour plate, cold acetonitrile with the internal standard was added to each well before introducing plasma, eliminating page 33: the need for further incubation. Following quenching, all plates were thoroughly mixed at 600 rpm for 10 minutes and centrifuged at 4000 rpm for 20 minutes. Supernatants were transferred to […] MS/MS analysis. Plasma stability was evaluated by determining the half-life through a least-squares fit of multiple time points based on first-order kinetics. Plasma protein binding assay: Test compound stock solutions were prepared at a concentration of 10 mM in DMSO. A Single-Use RED (Rapid Equilibrium Dialysis) device was acquired from Thermo Scientific (Cat. No: 99006, Rockford, IL). The sample preparation for plasma protein binding followed a modified version of Waters' method6. After thawing, plasma was centrifuged at 1000 rpm for 10 minutes to eliminate any particulates. Each compound was then prepared at a concentration of 10 µM in either human or mouse plasma. In the plasma protein binding assessment, 300 µL of spiked plasma solutions were introduced into the sample chamber (indicated by the red ring), while 550 µL of DPBS was added to the adjacent chamber. The plate was sealed and incubated at 37°C on an orbital shaker (100 rpm) for 4 hours. Post -incubation, 50 µL aliquots were withdrawn from each side of the insert and dispensed into a 96 -well storage plate. To create analytically identical sample matrices (matrix matching), an equivalent volume of blank plasma or DPBS was added to the necessary wells, followed by quenching w ith 3-fold (v:v) cold acetonitrile containing warfarin as the internal standard. Subsequently, the sealed plates were well -mixed at 600 rpm for 10 minutes and then centrifuged at 4000 rpm for 20 minutes. Supernatants were transferred to analytical […] Test compound concentrations were quantified in both the buffer and plasma chambers by determining peak areas relative to the internal standard. […]
# [1] = human plasma, regression of log concentration over time points 0, 3, 24, 48 h
Structure (SMILES),Plasma stability (human) [h],"Calculated Concentration (human plasma, time point 3h)","Calculated Concentration (human plasma, time point 24h)","Calculated Concentration (human plasma, time point 48h)",Ke [1],t(1/2) [1]
O=C1CCC(N2Cc3cc(Nc4noc5ccccc45)ccc3C2=O)C(=O)N1 (stereo not drawn) [SJ3149],8.5,–,–,–,–,–
O=C1CCC(N2Cc3cc(Nc4noc5ccccc45)ccc3C2=O)C(=O)N1 (stereo not drawn) [SJ001043149-1],–,67.501 and 81.153 and 72.775,13.370 and 15.407 and 13.318,1.845 and 2.121 and 1.968,0.08114,8.5413
